Measured values from patent US6767718B2, “Lipodepsipeptide antibiotics and methods of preparation” (BioSource Pharm, Inc., priority 2002, dated 2004).
Numbered stars: 1 amine (or outer) side, 2 acyl side, 3 side chain; on linkers, the order of the positions; unused ones are H or OH. Bridge positions count the residues as written; N and C are the ends. Square brackets hold non-standard residues; d marks the D form. Peptide text beside a SMILES is read from it. * marks the point of attachment. X1 = CC(CC(=O)O)C(N[*:1])C(=O)[*:2]; Kyn = Nc1ccccc1C(=O)C[CH](N)C(=O)O; NH(CH2)11CH3 = CCCCCCCCCCCCN*; Orn = NCCC[CH](N)C(=O)O; CO = O=C([*:1])[*:2]

Experiments:
[1] = tested on: Staphlococcus aureus strain Smith; experiment: MIC by serial twofold broth dilution in Mueller Hinton broth without and with 4 mmolar CaCl2; type: cell-based, Staphylococcus aureus; details: for MIC vs. S. aureus w Ca++ / MIC vs. S. aureus wo Ca++: S. aureus strain Smith; for MIC vs. S. aureus w Ca++: Mueller Hinton broth with 4 mmolar CaCl2; for MIC vs. S. aureus wo Ca++: Mueller Hinton broth without CaCl2
[2] = tested on: gram positive bacteria including methicillin-resistant Staphylococcus aureus (MRSA) and vancomycin-resistant enterococci (VRE); details: including MRSA and VRE strains; cited from earlier work

Molecule | MIC vs. S. aureus w Ca++ [1] | MIC vs. S. aureus wo Ca++ [1] | Antibacterial activity (in words) ([1]; carbamoyl-linked compounds, Table 2) | Activity against gram positive bacteria (in words) [2]
CCCCCCCCCCCCNC(=O)NC(CC(=O)O)C(=O)NC1C(=O)NCC(=O)NC(CCCN)C(=O)NC(CC(=O)O)C(=O)NC(C)C(=O)NC(CC(=O)O)C(=O)NCC(=O)NC(CO)C(=O)NC(C(C)CC(=O)O)C(=O)NC(CC(=O)c2ccccc2N)C(=O)OC1C (centres unmarked) [Compound 1, N-Dodecylcarbamoyl-cyclodepsipeptide-1] ({NH(CH2)11CH3-CO}-DTG[Orn]DADGS[X1][Kyn]; ester 2-C; configuration not given here) | 10.0 | >20 | good antibacterial activity | –
CCCCCCCCCC(=O)NC(Cc1cccc2ccccc12)C(=O)NC(CC(N)=O)C(=O)NC(CC(=O)O)C(=O)NC1C(=O)NCC(=O)NC(CCCN)C(=O)NC(CC(=O)O)C(=O)NC(C)C(=O)NC(CC(=O)O)C(=O)NCC(=O)NC(CO)C(=O)NC(C(C)CC(=O)O)C(=O)NC(CC(=O)c2ccccc2N)C(=O)OC1C [Compound 11, N-Decanoyl-L-β-(1-naphthyl)alanyl-cyclodepsipeptide-2] | 0.16 | 2.5 | – | –
CH3(CH2)8CO-Asn-Asp-cdpeptide [Compound 4] | >10 | >20 | – | –
CH3(CH2)8CO-D-Harm-Asn-Asp-cdpeptide [Compound 14] | >10 | >10 | – | –
CH3(CH2)8CO-L-Harm-Asn-Asp-cdpeptide [Compound 13] | 5.0 | >10 | – | –
CH3(CH2)8CO-Trp-Asn-Asp-cdpeptide [daptomycin, reference compound] | 0.16 | 2.5 | – | excellent activity
CH3(CH2)8CO-Trp-Asn-Asp-tBOC-cdpeptide [tBOC daptomycin, reference compound] | 0.6 | >2.5 | – | –
CH3(CH2)9SO2-L-Phe-Asn-Asp-FMOC-cdpeptide [Compound 8] | 5.0 | >20 | – | –
CH3(CH2)11NHCO-Asn-Asp-FMOC-cdpeptide [Compound 2] | 5.0 | >20 | – | –
